Assay [1] addresses T1, p38γ (Homo sapiens, UniProt P53778).
T1 construct: purchased Promega
T1 sequence (P53778 1-367): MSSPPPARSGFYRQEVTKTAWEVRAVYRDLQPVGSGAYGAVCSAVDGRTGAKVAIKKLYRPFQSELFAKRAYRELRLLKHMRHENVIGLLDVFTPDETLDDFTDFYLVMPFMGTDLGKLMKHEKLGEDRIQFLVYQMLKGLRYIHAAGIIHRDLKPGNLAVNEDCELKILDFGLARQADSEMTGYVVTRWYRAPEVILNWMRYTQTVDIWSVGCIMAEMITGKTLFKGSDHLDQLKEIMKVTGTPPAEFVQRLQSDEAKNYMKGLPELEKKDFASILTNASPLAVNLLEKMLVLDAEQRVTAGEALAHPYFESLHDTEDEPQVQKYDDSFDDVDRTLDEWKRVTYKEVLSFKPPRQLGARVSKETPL
Briefly: p38γ kinase enzyme system with ADP-Glo kinase assay. Type of assay: biochemical. The protocol:
The inhibitory assay of p38γ was performed using the p38γ kinase enzyme system (Promega, Madison, WI, USA) with the ADP-Glo™ kinase assay kit (Promega, Madison, WI, USA). The kinase reactions were conducted in a total assay volume of 5 μL in a white 384-well plate. The kinase reaction mixture per well was composed using the reaction buffer supplemented with 50μM DTT and contained 50 ng p38γ, 1μg p38 substrate, 50 μM ATP, and the tested compound at the specified concentrations. Positive control wells receive 5% DMSO instead of 1 μL of the compound solution, and negative control wells are without both compound and enzyme in the reaction. After incubation of the plates at room temperature for 60 min, the reaction was stopped with 5 μL of ADP-Glo™ reagent for 40 min. Next, 10 µL of kinase detection reagent was added and incubated for another 30 min to convert the ADP to ATP. The ATP was then detected by measuring the luminescence using a Victor Nivo multimode microplate reader (PerkinElmer, Waltham, MA, USA) in an integration time of 1 s per well. The relative kinase activity was calculated as follows: p38γ kinase activity %=Lumenescence of compound−luminescence of negative control /Lumenescence of positive control−luminescence of negative control ×100%
(§1) All data were collected from triplicate experiments and presented as the mean ± standard deviation of the mean. Data were analyzed using Graph Prism v9.0.0.121. One sample t test was used to calculate the statistical significance of the differences. p < 0.05 was considered statistically significant. The four-parameter dose-response curves and IC50 values were determined by a non-linear regression curve fitting method.
(In general: In ADP-Glo the light output rises with the ADP produced.)

Another assay concerns Huh7 cells. Put plainly: CCK-8 cytotoxicity assay, Huh7. The format is cell-based, human. On the procedure: (§2) The compounds were tested for HCC cell lines using the Cell Counting Kit-8 (CCK-8) (Absin, Shanghai, China). The human HCC cell lines Huh7 and HepG2 were cultured in high-glucose Dulbecco’s modified Eagle’s medium (DMEM) supplemented with 10% fetal bovine serum (FBS), 1% penicillin, and 1% penicillin/streptomycin at 37 °C with 5% CO2. Huh7 and HepG2 cells were seeded into white 96-well plates at 3 × 10^3 cells per well in 100 μL suspension and pre-incubated overnight. The cells were then treated with different compound concentrations and incubated for 48 h. Control wells just contained cell suspension, while blank wells were added with complete media. The effects on proliferation were determined by the addition of 10 µL CCK-8 reagent, followed by incubation for 1 h. Finally, the absorbance of the reaction was measured at 450 nm using a Victor Nivo Multimode Microplate Reader. Cell viability was calculated as follows: Cell viability%= experimental well absorbance−blank well absorbance /control well absorbance−blank well absorbance ×100%
as §1
On the technique in general: Formazan colour is commonly taken as a measure of viable cells.

The test system of the next assay is HepG2 cells. Briefly: CCK-8 cytotoxicity assay, HepG2. The format is cell-based, human. The protocol:
as §2, §1

The target of assay [2] is T1, p38γ. Also on record: method as in PMID 29758280. Particulars: read-out: experimental IC50 on p38γ; cited from earlier work.

Read-outs that look alike come from different tables or passages of the source.

With `O=C(C1CC(=O)N(C2CCS(=O)(=O)C2)C1)N1CCC(c2c[nH]c3ncccc23)CC1` (centres unmarked) [compound 2, 1-(1,1-dioxothiolan-3-yl)-4-[4-(1H-pyrrolo [2,3-b]pyridin-3-yl)piperidine-1-carbonyl]pyrrolidin-2-one], the entries for the “reduction of p38γ activity” value on p38γ [1] (1 μM), at p38γ [1] (10 μM) and at p38γ [1] (100 μM) were 72.43%, 93.12% and 96.18%, respectively. Also, the IC50 at p38γ [1] (12-point four-fold dilution from 100 μM, 50 μM ATP) came to 0.0168 µM; with Huh7 cells (Homo sapiens, Huh-7, 48 h treatment), 11.9 µM; with HepG2 cells (Homo sapiens, HepG2, 48 h treatment) it was 19.2 µM. The “effect on viability of Huh7 cells” value with Huh7 cells (1 µM, 48 h) is “no effect”. For the same molecule, the “effect on HCC cell growth (Huh7)” value in the assay with Huh7 cells (10 and 100 µM, 48 h) is “potent inhibitory effects”. The “effect on viability of HepG2 cells” value with HepG2 cells (1 µM, 48 h) is “no effect”. The “effect on HCC cell growth (HepG2)” value with HepG2 cells (10 and 100 µM, 48 h) is listed as “potent inhibitory effects”.

For `Cc1ccc(=O)n(-c2ccccc2)c1` [pirfenidone], on p38γ [2], the IC50 was above 125 µM.

One may read the IC50 as the concentration at which inhibition is half-maximal.

Values taken from article PMC10139033, “Identification of Potential p38γ Inhibitors via In Silico Screening, In Vitro Bioassay and Molecular Dynamics Simulation Studies” (International Journal of Molecular Sciences, 2023).
